The record followed here is paper PMC2375353, “Effective treatment of experimental U-87MG human glioblastoma in nude mice with a targeted cytotoxic bombesin analogue, AN-215” (British Journal of Cancer, 2002).

The assay has as its system U-87MG human glioblastoma xenografted into nude mice. Description: Experiment 2: growth of s.c. U-87MG xenografts, with BN receptor blockade. Particulars: RC-3095 200 μg i.v. 15 min before AN-215 150 nmol kg^-1. It is filed as in vivo, human tumour in male athymic nude mice. On the procedure: Human glioblastoma cell line U-87MG was obtained from American Type Culture Collection (Manassas, VA, USA) and cultured as described ([Pinski et al, 1994]). Male athymic (Ncr nu/nu) nude mice, approximately 6-weeks-old on arrival, were obtained from the National Cancer Institute (Frederick Cancer Research and Development Center, Frederick, MD, USA), and housed in laminar air-flow cabinets under pathogen-free conditions with a 12 h light/12 h dark schedule, and fed autoclaved standard chow and water ad libitum. Xenografts were initiated by s.c. injection of 12×10^6 U-87MG cells into the right flanks of five male nude mice. Tumours resulting after 2 weeks were aseptically dissected, mechanically minced, and 3-mm^3 pieces of tumour tissue were transplanted s.c. with a trocar needle. The take rate was 100%. All experiments were performed in accordance with institutional ethical guidelines of animal care and were essentially in agreement with [UKCCCR guidelines (1998)] for the welfare of animals in experimental neoplasia.
Experiment 2 was started when U-87MG tumours had grown to 70–84 mm^3 in volume. The animals were divided into the following treatment groups: group 1 (10 mice), control, vehicle solution; group 2 (10 mice), analogue AN-215; group 3 (five mice), unconjugated mixture of the cytotoxic radical AN-201 and BN antagonist RC-3095. All compounds were injected i.v. at 150 nmol kg^−1 of BW on days 1, 10, and 17. In addition, one group of tumour-bearing mice received an i.v. injection of 200 μg of BN antagonist RC-3095 15 min before each administration of AN-215 at a dose of 150 nmol kg^−1 of BW on days 1, 10 and 17 as in the case of group 2. The experiment was terminated on day 20 as described above.
Data are expressed as mean±s.e. Differences between mean values were evaluated by two-tailed Student's t-test, P<0.05 being considered significant.

For “[D-Tpi^6,Leu^13ψ(CH2NH)Leu^14]BN (6-14) [RC-3095, reference compound]”, the “Antitumour effect after BN receptor blockade” value was “attenuated the antitumour effect of the cytotoxic BN analogue AN-215”.
